The test system of this assay is P100 membrane fraction of Caco-2 cells. The experiment in a line: Dansylated peptide ELISA: relative binding of PAX2 and HAX42 peptides to P100 fractions (ratio to ZElan021). The following applies: ratio to ZElan021 = 1.00. As to the method:
The peptides and proteins were analyzed by a dansylated peptide ELISA method in which 96 well plates were coated overnight at 4° C. with 100 μl/well coating protein (normally 100 μg/ml P100 membrane fraction) in 0.05M carbonate buffer pH9.6. Nonspecific binding was blocked using 200 μl/well, 2% Marvel/PBS for 2 hours at 37° C. prior to incubation with dansylated peptides. The plates were washed three times with PBS/0.05% Tween 20 and after each subsequent incubation step. […] A buffer blank control was included to ensure that background binding to plastic was not due to the antibodies used in the assay system. […] Plates were developed using 75 μl/well Bionostics TMB substrate and incubated for approximately 10 minutes. The developing reaction was stopped using Bionostics Red Stop solution (25 μl/well), and the optical density of the plates was read at 650 nm. […]

From US7053177B1, “Random peptides that bind to gastro-intestinal tract (GIT) transport receptors and related methods” (Cytogen Corporation, priority 1997, dated 2006) come the findings set out here.

Peptide text beside a SMILES is read from it. * marks the point of attachment. Dansyl = CN(C)c1cccc2c(S(=O)(=O)*)cccc12; K(dns) = dansyl-lysine

As to `CC(C)[C@H](NC(=O)[C@H](CCCCN)NC(=O)[C@H](CCCNC(=N)N)NC(=O)[C@@H](N)CCCCNS(=O)(=O)c1cccc2c(N(C)C)cccc12)C(=O)N[C@@H](Cc1ccccc1)C(=O)N[C@@H](CC(N)=O)C(=O)N[C@@H](CCCNC(=N)N)C(=O)N[C@@H](CCCNC(=N)N)C(=O)N[C@@H](CCCNC(=N)N)C(=O)N1CCC[C@H]1C(=O)N[C@@H](CO)C(N)=O` [ZElan065] (H-K(Dansyl)RKVFNRRRPS-NH2), the “Binding value at 20 μg/ml” value (HAX42 peptides) was 0.00. The “Binding value at 50 μg/ml” value runs as follows: (HAX42 peptides, first column) 0.54; (HAX42 peptides, second column) 0.30.

On to `CC(C)C[C@H](NC(=O)[C@H](C)NC(=O)[C@H](CCCNC(=N)N)NC(=O)[C@H](CC(N)=O)NC(=O)[C@H](Cc1c[nH]cn1)NC(=O)[C@H](CO)NC(=O)[C@H](CO)NC(=O)[C@@H](N)CCCCNS(=O)(=O)c1cccc2c(N(C)C)cccc12)C(=O)N[C@@H](CCCNC(=N)N)C(=O)N[C@H](C(=O)N[C@@H](CCCNC(=N)N)C(N)=O)[C@@H](C)O` [ZElan078] (H-K(Dansyl)SSHNRALRTR-NH2), for which, for the setting “PAX2 peptides, first column”, the “Binding value at 20 μg/ml” value was determined as 0.11 and the “Binding value at 50 μg/ml” value turned out to be 0.87. Where the note is “PAX2 peptides”, the “Binding value at 50 μg/ml (Jackson Ab)” value is recorded as 0.68 and the “Binding value at 50 μg/ml (Southern Ab)” value came to 0.47. Besides, the “Binding value at 50 μg/ml” value (PAX2 peptides, second column) is 0.69.

Take `CC(C)C[C@H](NC(=O)[C@H](CCCNC(=N)N)NC(=O)[C@H](CO)NC(=O)[C@@H](NC(=O)[C@H](CCCCN)NC(=O)[C@H](CC(N)=O)NC(=O)[C@H](CCCNC(=N)N)NC(=O)[C@@H](NC(=O)[C@H](CC(N)=O)NC(=O)[C@H](CCCNC(=N)N)NC(=O)[C@@H](N)CCCCNS(=O)(=O)c1cccc2c(N(C)C)cccc12)[C@@H](C)O)[C@@H](C)O)C(=O)N[C@@H](CO)C(=O)N[C@@H](C)C(=O)N[C@@H](CC(N)=O)C(=O)N1CCC[C@H]1C(=O)N[C@@H](Cc1c[nH]cn1)C(=O)N[C@@H](CCCNC(=N)N)C(=O)N[C@@H](CO)C(=O)N[C@@H](Cc1c[nH]cn1)C(=O)N[C@@H](CCCNC(=N)N)C(N)=O` [ZElan084] (H-K(Dansyl)RNTRNKTSRLSANPHRSHR-NH2): where the note is “PAX2 peptides, second column”, the “Binding value at 20 μg/ml” value was 0.93 and the “Binding value at 50 μg/ml” value is given as 0.77.

Turning to `CC(C)C[C@H](NC(=O)[C@H](CCCNC(=N)N)NC(=O)[C@H](CCCNC(=N)N)NC(=O)[C@@H](N)CCCCNS(=O)(=O)c1cccc2c(N(C)C)cccc12)C(=O)N[C@@H](CCCNC(=N)N)C(=O)N[C@H](C(=O)N[C@@H](CCCNC(=N)N)C(=O)N[C@@H](CO)C(=O)N[C@@H](CCCNC(=N)N)C(=O)N1CCC[C@H]1C(=O)N[C@@H](CC(N)=O)C(N)=O)[C@@H](C)O` [ZElan056] (H-K(Dansyl)RRLRTRSRPN-NH2), for the setting “PAX2 peptides, first column”, the “Binding value at 20 μg/ml” value was determined as 0.00 and the “Binding value at 50 μg/ml” value turned out to be 0.21. Moreover, where the note is “PAX2 peptides, second column”, the “Binding value at 20 μg/ml” value came to 0.16 and the “Binding value at 50 μg/ml” value is listed as 0.21.

With `CC(C)C[C@H](NC(=O)[C@H](CCCNC(=N)N)NC(=O)[C@H](CCCNC(=N)N)NC(=O)[C@H](CC(N)=O)NC(=O)[C@H](Cc1c[nH]cn1)NC(=O)[C@H](CO)NC(=O)[C@H](CO)NC(=O)[C@H](Cc1c[nH]cn1)NC(=O)[C@H](CCCCN)NC(=O)[C@H](C)NC(=O)[C@H](CC(N)=O)NC(=O)[C@@H](NC(=O)[C@@H](N)CCCCNS(=O)(=O)c1cccc2c(N(C)C)cccc12)[C@@H](C)O)C(=O)N[C@@H](CCCNC(=N)N)C(=O)N[C@H](C(=O)N[C@@H](CCCNC(=N)N)C(=O)N[C@@H](CO)C(=O)N[C@@H](CCCNC(=N)N)C(=O)N1CCC[C@H]1C(=O)N[C@@H](CC(N)=O)C(N)=O)[C@@H](C)O` [ZElan032] (H-K(Dansyl)TNAKHSSHNRRLRTRSRPN-NH2), under “PAX2 peptides, first column”, the “Binding value at 50 μg/ml” value is given as 0.95.

For `C[C@H](NC(=O)[C@H](CCCNC(=N)N)NC(=O)[C@H](CCCNC(=N)N)NC(=O)[C@H](CC(N)=O)NC(=O)[C@H](Cc1c[nH]cn1)NC(=O)[C@H](CO)NC(=O)[C@H](CO)NC(=O)[C@@H](N)CCCCNS(=O)(=O)c1cccc2c(N(C)C)cccc12)C(=O)N[C@@H](CCCNC(=N)N)C(=O)N[C@H](C(=O)N[C@@H](CCCNC(=N)N)C(N)=O)[C@@H](C)O` [ZElan079] (H-K(Dansyl)SSHNRRARTR-NH2), where the note is “PAX2 peptides, first column”, the “Binding value at 20 μg/ml” value is on record as 0.31 and the “Binding value at 50 μg/ml” value is 0.97. In addition, where the note is “PAX2 peptides”, the “Binding value at 50 μg/ml (Jackson Ab)” value was determined as 0.83 and the “Binding value at 50 μg/ml (Southern Ab)” value turned out to be 0.53. The “Binding value at 50 μg/ml” value (PAX2 peptides, second column) turned out to be 0.68.

As for “H2N—K(dns)SDNAKEPGDYNCCGNGNSTG ({K(dns)}-SDNAKEPGDYNCCGNGNSTG-NH2; cysteine pairing not given here) [ZElan088]”, the “Binding value at 25 μg/ml” value is, setting by setting: (HAX42 peptides, first column) 2.21; (HAX42 peptides, second column) 1.41; (HAX42 peptides, third column) 1.63.

Consider `CC(C)C[C@H](NC(=O)[C@H](CCCNC(=N)N)NC(=O)[C@H](CCCNC(=N)N)NC(=O)[C@H](CC(N)=O)NC(=O)[C@H](Cc1c[nH]cn1)NC(=O)[C@H](CO)NC(=O)[C@H](CO)NC(=O)[C@@H](N)CCCCNS(=O)(=O)c1cccc2c(N(C)C)cccc12)C(=O)N[C@@H](CCCNC(=N)N)C(=O)N[C@@H](C)C(=O)N[C@@H](CCCNC(=N)N)C(N)=O` [ZElan081] (H-K(Dansyl)SSHNRRLRAR-NH2), for which the “Binding value at 20 μg/ml” value (PAX2 peptides, first column) came to 0.01. Also, the “Binding value at 50 μg/ml” value was determined as 0.89 (PAX2 peptides, first column) and 0.47 (PAX2 peptides, second column).

In the case of `CC(C)C[C@H](NC(=O)[C@H](CCCNC(=N)N)NC(=O)[C@H](CCCNC(=N)N)NC(=O)[C@H](CC(N)=O)NC(=O)[C@H](Cc1c[nH]cn1)NC(=O)[C@H](CO)NC(=O)[C@H](CO)NC(=O)[C@H](Cc1c[nH]cn1)NC(=O)[C@H](CCCCN)NC(=O)[C@H](C)NC(=O)[C@H](CC(N)=O)NC(=O)[C@@H](NC(=O)[C@@H](N)CCCCNS(=O)(=O)c1cccc2c(N(C)C)cccc12)[C@@H](C)O)C(=O)N[C@@H](CCCNC(=N)N)C(=O)N[C@H](C(=O)N[C@@H](CCCNC(=N)N)C(N)=O)[C@@H](C)O` [ZElan033] (H-K(Dansyl)TNAKHSSHNRRLRTR-NH2), the “Binding value at 20 μg/ml” value (PAX2 peptides, first column) turned out to be 0.35. The “Binding value at 50 μg/ml” value stood at 0.80 (PAX2 peptides, first column) and 0.66 (PAX2 peptides, second column).

Take `CC(C)C[C@H](NC(=O)[C@H](CCCNC(=N)N)NC(=O)[C@H](CCCNC(=N)N)NC(=O)[C@H](C)NC(=O)[C@H](Cc1c[nH]cn1)NC(=O)[C@H](CO)NC(=O)[C@H](CO)NC(=O)[C@@H](N)CCCCNS(=O)(=O)c1cccc2c(N(C)C)cccc12)C(=O)N[C@@H](CCCNC(=N)N)C(=O)N[C@H](C(=O)N[C@@H](CCCNC(=N)N)C(N)=O)[C@@H](C)O` [ZElan076] (H-K(Dansyl)SSHARRLRTR-NH2): where the note is “PAX2 peptides, first column”, the “Binding value at 20 μg/ml” value came to 0.08 and the “Binding value at 50 μg/ml” value is reported as 1.00. Further, where the note is “PAX2 peptides”, the “Binding value at 50 μg/ml (Jackson Ab)” value stood at 0.60 and the “Binding value at 50 μg/ml (Southern Ab)” value came to 0.42. Also, the “Binding value at 50 μg/ml” value (PAX2 peptides, second column) came to 0.41.

As for `CC(C)C[C@H](NC(=O)[C@H](CCCNC(=N)N)NC(=O)[C@H](CCCNC(=N)N)NC(=O)[C@H](CC(N)=O)NC(=O)[C@H](Cc1c[nH]cn1)NC(=O)[C@H](C)NC(=O)[C@H](CO)NC(=O)[C@@H](N)CCCCNS(=O)(=O)c1cccc2c(N(C)C)cccc12)C(=O)N[C@@H](CCCNC(=N)N)C(=O)N[C@H](C(=O)N[C@@H](CCCNC(=N)N)C(N)=O)[C@@H](C)O` [ZElan074] (H-K(Dansyl)SAHNRRLRTR-NH2), under “PAX2 peptides, first column”, the “Binding value at 20 μg/ml” value is 0.06 and the “Binding value at 50 μg/ml” value amounted to 0.82. Moreover, where the note is “PAX2 peptides”, the “Binding value at 50 μg/ml (Jackson Ab)” value is 0.71 and the “Binding value at 50 μg/ml (Southern Ab)” value was determined as 0.48. For the setting “PAX2 peptides, second column”, the “Binding value at 50 μg/ml” value was 0.52.

`CN(C)c1cccc2c(S(=O)(=O)NCCCC[C@H](N)C(=O)N[C@@H](CC(N)=O)C(=O)N[C@@H](CCCNC(=N)N)C(=O)N[C@@H](CCCNC(=N)N)C(=O)N[C@@H](CCCNC(=N)N)C(=O)N3CCC[C@H]3C(=O)N[C@@H](CO)C(N)=O)cccc12` [ZElan067, H2N-K(dns)NRRRPS-CONH2] (H-K(Dansyl)NRRRPS-NH2): the “Binding value at 20 μg/ml” value (HAX42 peptides) is reported as 0.08. In addition, the “Binding value at 50 μg/ml” value reads like this: (HAX42 peptides, first column) 0.52; (HAX42 peptides, second column) 0.40.

Consider `CC(C)C[C@H](NC(=O)[C@H](CC(N)=O)NC(=O)[C@@H](N)CCCCNS(=O)(=O)c1cccc2c(N(C)C)cccc12)C(=O)N[C@@H](CCCNC(=N)N)C(=O)N[C@@H](CO)C(=O)N[C@@H](CC(=O)O)C(=O)N[C@@H](CC(N)=O)C(=O)N[C@@H](C)C(=O)N[C@@H](CCCCN)C(=O)N[C@@H](CCC(=O)O)C(=O)N1CCC[C@H]1C(=O)NCC(=O)N[C@@H](CC(=O)O)C(=O)N[C@@H](Cc1ccc(O)cc1)C(=O)N[C@@H](CC(N)=O)C(=O)N[C@@H](CS)C(=O)N[C@@H](CS)C(=O)NCC(=O)N[C@@H](CC(N)=O)C(=O)NCC(=O)N[C@@H](CC(N)=O)C(=O)N[C@@H](CO)C(=O)N[C@H](C(=O)NCC(=O)N[C@@H](CCCNC(=N)N)C(=O)N[C@@H](CCCCN)C(=O)N[C@H](C(=O)N[C@@H](Cc1ccccc1)C(=O)N[C@@H](CC(N)=O)C(=O)N[C@@H](CCCNC(=N)N)C(N)=O)C(C)C)[C@@H](C)O` [ZElan071] (H-K(Dansyl)NLRSDNAKEPGDYNCCGNGNSTGRKVFNR-NH2), for which the “Binding value at 50 μg/ml” value reads like this: (HAX42 peptides, first column) 0.89; (HAX42 peptides, second column) 0.75.
